What was measured:
[1] = target: T1, BRD4 (BD1) (Homo sapiens, UniProt O60885); assay: Differential scanning fluorimetry (DSF) single-dose thermal shift screening; type: binding; settings: DSF, compound 10 µM, BRD4 (BD1) 2 µM, n = 3, decimal comma; read-out: ΔTm ºC at [10 µM]
T1 construct: A pET28 plasmid containing residues 44–168 of BRD4 (BD1), a 6xHis tag, a TEV protease cleavage site; 6xHis (N, cleaved yes); made in house; host or cells: E. coli Rosetta (D3)

[2] = target: T2, His6-BRD4 (BD1) (Homo sapiens, UniProt O60885); assay: Surface plasmon resonance (SPR) single-dose screening; type: binding; set-up: key to SPR RESULT: Positive: compounds were considered as SPR hits also when their average signal was further than two standard deviations apart from the average signal of the blank samples (1% DMSO); settings: for RUs at [10 µM]: SPR, compound 10 µM, 1% DMSO, n = 2, decimal comma; for SPR RESULT: single dose 10 µM, n = 2
T2 construct: A pET28 plasmid containing residues 44–168 of BRD4 (BD1), a 6xHis tag, a TEV protease cleavage site; made in house; host or cells: E. coli Rosetta (D3)

[3] = target: T1, BRD4 (BD1); assay: Competitive HTRF TR-FRET binding assay (displacement of acetylated histone H4 peptide); settings: for TR-FRET IC50 (nM) / IC50: 16-point titration 0.1 nM to 10 µM, n = 2, Negative = curve could not be fitted to a sigmoidal curve; for IC50: read-out: TR-FRET IC50
Procedure: To further quantitatively characterize the DSF/SPR hits compounds obtained in the single-dose screenings, we selected HTRF TR-FRET. Specifically, we employed a competitive HTRF TR-FRET experiment to measure the compound’s capacity to displace an acetylated peptide from the binding site of BRD4 (BD1). For each molecule, a 16-point concentration curve was titrated against the peptide-BRD (BD1) complex and incubated for 1.5 h. A compound was considered a positive binder if we could fit its titration curve to a sigmoidal curve to determine its IC50. […] Compound screening was carried out in 384-well, white, round-bottom, small-volume plates (CORNING) in a final volume of 20 µL of 50 mM HEPES (pH 7.4), 50 mM NaCl, 400 mM KF, 0.5 mM CHAPS, and 0.05% BSA. […] Then, the labeled anti-His6-XL665 antibody (CisBio) (10 nM) was added to the mixture and incubated for 15 min, before the Eu3+ cryptate-conjugated streptavidin (2 nM) (CisBio) was added and incubated for 15 min. All incubations were performed at room temperature. […] Titration of (+)−JQ1 was used as a positive control for each experiment.

Row | Compound | ΔTm at 10 µM [1] [°C] | RUs at [10 µM] [2] | SPR RESULT [2] | TR-FRET IC50 (nM) [3] | IC50 [3] [nM] | IC50 by HTRF TR-FRET, range in words ([3]; potency range or dose-response behaviour)
1 | Cc1nnc(NC(=O)C2CCCN(C(=O)c3ccc(Br)c(F)c3)C2)s1 (stereo not drawn) [Compound 79, CC1=NN=C(NC(=O)C2CCCN(C2)C(=O)C=3C=CC(Br)=C(F)C3)S1] | 1.21 | 33,58 ± 5,55 RUs | Positive | Negative |  | 
2 | CCOc1ccc(-n2nc(Cc3ccncc3)nc2-c2cn(C)c(=O)c3ccccc23)cc1 [Compound 21, CCOC=1C=CC(=CC1)N2N=C(CC=3C=CN=CC3)N=C2C4=CN(C)C(=O)C=5C=CC=CC45] | 2.33 | 38,73 ± 19,2 RUs | Negative |  | 552 | 
3 | COc1ccc(-n2c(C)nnc2SCC(=O)NCC2(N)CCOCC2)cc1 [Compound 28, COC=1C=CC(=CC1)N2C(C)=NN=C2SCC(=O)NCC3(N)CCOCC3] | 0.36 | 16,66 ± 3,56 RUs | Positive | Negative |  | 
4 | Cc1ncc(C(=O)NCCn2cc(Cn3c(C)nc4ccccc43)nn2)c(=O)[nH]1 [Compound 83, CC1=NC=2C=CC=CC2N1CC3=CN(CCNC(=O)C4=CN=C(C)NC4=O)N=N3] | 0.78 | 14,05 ± 12,27 RUs | Negative |  | 325 | 
5 | CN(Cc1cccc(OC(F)F)c1)C(=O)C(=O)NC1CCN(C(=O)c2ccco2)c2ccccc21 (stereo not drawn) [Compound 86, CN(CC=1C=CC=C(OC(F)F)C1)C(=O)C(=O)NC2CCN(C(=O)C3=CC=CO3)C=4C=CC=CC24] | 0.94 | 56,94 ± 25,46 RUs | Negative | Negative |  | 
6 | CCn1nnc2cc(C(=O)N3CCC(N(C)C(=O)C4CN(C)CCO4)C3)ccc21 (stereo not drawn) [Compound 36, CCN1N=NC=2C=C(C=CC12)C(=O)N3CCC(C3)N(C)C(=O)C4CN(C)CCO4] | 0.34 | 6,83 ± 2,31 RUs | Negative | Negative |  | 
7 | Cc1ncc(CNC(=O)c2c(-c3ccccc3)nn3ccccc23)c(O)n1 [Compound 75, CC=1N=CC(CNC(=O)C=2C(=NN3C=CC=CC23)C=4C=CC=CC4)=C(O)N1] | 1.2 | 14,74 ± 1,95 RUs | Positive | Negative |  | 
8 | Cc1cc(C)n2nc(NC(=O)N3CCC(CCC(C)(C)C)C3)nc2n1 (stereo not drawn) [Compound 74, CC=1C=C(C)N2N=C(NC(=O)N3CCC(CCC(C)(C)C)C3)N=C2N1] | 0.4 | 52,94 ± 6,92 RUs | Positive |  | 1370 | 
9 | Cc1cc(C)n2nc(NC(=O)NCCOC3(C)CCOCC3)nc2n1 [Compound 71, CC=1C=C(C)N2N=C(NC(=O)NCCOC3(C)CCOCC3)N=C2N1] | 0.79 | 11,01 ± 0,31 RUs | Positive |  | 71.4 | 
10 | COc1ccc2c(c1)N(C(=O)c1cn(C)c(=O)c3ccccc13)CC2 [Compound 15, COC=1C=CC=2CCN(C(=O)C3=CN(C)C(=O)C=4C=CC=CC34)C2C1] | 1.71 | 28,19 ± 22,85 RUs | Negative |  | 1010 | 
11 | CC(C)=CC(=O)NCCC1CCN(C(=O)c2cn(C)c(=O)c3ccccc23)C1 (stereo not drawn) [Compound 23, CC(=CC(=O)NCCC1CCN(C1)C(=O)C2=CN(C)C(=O)C=3C=CC=CC23)C] | 2.61 | 5,93 ± 1,05 RUs | Negative |  | 3.44 | 
12 | CC(NS(=O)(=O)c1cccc(-c2nnnn2C)c1)C1CCN(Cc2ccccc2)C1 (stereo not drawn) [Compound 46, CC(NS(=O)(=O)C=1C=CC=C(C1)C2=NN=NN2C)C3CCN(CC=4C=CC=CC4)C3] | 2.47 | 19,71 ± 0,01 RUs | Positive |  | 240 | 
13 | CCCc1c(C(=O)N(C)C2CN(C(=O)c3cc(C)n[nH]3)C2)[nH]c(C)c1C(C)=O [Compound 96, CCCC1=C(NC(C)=C1C(=O)C)C(=O)N(C)C2CN(C2)C(=O)C3=CC(C)=NN3] | 2.24 | 16,1 ± 0,61 RUs | Positive |  | 211 | 
14 | COC(=O)c1cc(CNC(=O)C=Cc2cnc(C)[nH]c2=O)ccc1Cl [Compound 87, COC(=O)C=1C=C(CNC(=O)C=CC2=CN=C(C)NC2=O)C=CC1Cl] | 2.3 | 15,1 ± 2,46 RUs | Positive |  | 11.1 | low nM
15 | Cc1cc(C)n2nc(CNC(=NCCCN3CCOCC3)N3CCC(NC(=O)CBr)C3)nc2n1 (stereo not drawn) [Compound 93, BrCC(=O)NC1CCN(C1)C(=NCCCN2CCOCC2)NCC=3N=C4N=C(C)C=C(C)N4N3] | -0.58 | 20,44 ± 23,06 RUs | Negative |  | 470 | 
16 | CCn1nnc2cc(C(=O)N3C[C@@H](OC(C)=O)[C@@H](n4cc(CN5CCC(O)CC5)nn4)C3)ccc21 [Compound 95, CCN1N=NC=2C=C(C=CC12)C(=O)N3C[C@@H](OC(=O)C)[C@H](C3)N4C=C(CN5CCC(O)CC5)N=N4] | 0.19 | 14,42 ± 2,9 RUs | Positive | Negative |  | 
17 | Cc1nnc(NC(=O)CNC(c2ccc(F)cc2)c2cnn(C)c2)s1 (stereo not drawn) [Compound 88, CC1=NN=C(NC(=O)CNC(C=2C=NN(C)C2)C=3C=CC(F)=CC3)S1] | 0.54 | 4,11 ± 7,31 RUs | Negative |  | 2260 | 
18 | COc1cccnc1C(=O)N1CCC2(CC(NC(=O)c3occc3Br)c3ccccc3O2)C1 (stereo not drawn) [Compound 66, COC=1C=CC=NC1C(=O)N2CCC3(C2)CC(NC(=O)C=4OC=CC4Br)C=5C=CC=CC5O3] | 0.83 | 20,41 ± 1,87 RUs | Positive |  | 136 | 
19 | COc1cccc(-n2c(C)nnc2SCC(=O)NC2CN(C(=O)C3CCOCC3)CC23CC3)c1 (stereo not drawn) [Compound 32, COC=1C=CC=C(C1)N2C(C)=NN=C2SCC(=O)NC3CN(CC43CC4)C(=O)C5CCOCC5] | 0.87 | 3,3 ± 1,9 RUs | Negative |  | 386 | 
20 | COc1ccc(C=C(CC(=O)Nc2nnc(C)s2)c2nc3ccccc3s2)cc1OC [Compound 70, COC=1C=CC(C=C(CC(=O)NC2=NN=C(C)S2)C3=NC=4C=CC=CC4S3)=CC1OC] | 0.65 | 21,72 ± 4,06 RUs | Positive |  | 123 | 
21 | CCn1nnc2cc(C(=O)N3CCC(CCNC(=O)c4nc(O)sc4C)C3)ccc21 (stereo not drawn) [Compound 31, CCN1N=NC=2C=C(C=CC12)C(=O)N3CCC(CCNC(=O)C=4N=C(O)SC4C)C3] | 0.02 | 8,73 ± 4,6 RUs | Negative | Negative |  | 
22 | COc1cccc(-n2c(C)nnc2SCC(=O)N2CCCN(C(=O)c3cc(F)c[nH]3)CC2)c1 [Compound 30, COC=1C=CC=C(C1)N2C(C)=NN=C2SCC(=O)N3CCCN(CC3)C(=O)C4=CC(F)=CN4] | 0.43 | 17,68 ± 18,73 RUs | Negative | Negative |  | 
23 | COC1(CNC(=O)c2nscc2Br)CN(C(=O)C2CCS(=O)(=O)N2)C1 (stereo not drawn) [Compound 63, COC1(CNC(=O)C2=NSC=C2Br)CN(C1)C(=O)C3CCS(=O)(=O)N3] | 0.7 | 13,51 ± 3,27 RUs | Negative | Negative |  | 

From paper PMC12316891, “A bottom-up approach to find lead compounds in expansive chemical spaces” (Communications Chemistry, 2025)
